Blank lines part the entries; values can stand above or below the compound they belong to.
How the values were obtained:
[1] = Food effect on pharmacokinetics of tazarotenic acid after oral tazarotene (high-fat meal vs fast); type: in vivo, human; settings: 6.3 mg oral tazarotene, healthy subjects; for average ratio of Cmax values (test/reference): high-fat meal vs 8-10 hour fast
Method: For the purposes of this application, the bioavailability of a drug may be based on the human pharmokinetic parameters of maximum blood concentration (Cmax) and Area under the blood concentration-time curve (AUC).
The LC-MS/MS test for simultaneous detection of tazarotene and tazarotenic acid may be run as follows. One ml of plasma (EDTA-treated) is diluted with 1.0 ml of water. Diluted plasma is extracted using solid phase extraction (SPE) on a C18 cartridge. The eluate is evaporated, reconstituted in a water/methanol-based mobile phase, and injected onto a 4.6×50 mm, 3 μm pore size C-8 reverse phase high pressure liquid chromatography (HPLC) column (Agilent, Wilmington, Del.). Compounds are gradient-eluted at 1.2 mL/min and detected using an API 3000 triple quadrupole mass spectrometer with an Atmospheric Pressure Chemical Ionization (APCI) source (PE-Sciex, Concord, Ontario, Canada). Molecular reaction monitoring enhances the sensitivity and selectivity of this assay by collisionally dissociating the protonated molecules for the analyte and an internal standard thereby forming the product ions. The specific precursor-product ion pair monitored are m/z 352→324 for tazarotene, m/z 359→331 for the tazarotene internal standard, m/z 324→294 for tazarotenic acid, and m/z 331+298 for the tazarotenic acid internal standard. The lower limit of quantitation at assay range tested is 0.1 ng/mL, with a coefficient of variation and deviation from nominal concentration of <15%.

[2] = PK and PD interaction studies of oral tazarotene with oral contraceptives; type: in vivo, human; settings: tazarotene 1.1 mg or 6 mg daily with NE/EE or NGM/EE
Method: It is the objective of this study to determine if there are pharmacokinetic (PK) and pharmacodynamic (PD) interactions between tazarotene and commonly prescribed oral contraceptives (OCs) when coadministered together.
Three separate clinical studies are conducted to evaluate the PK and PD interactions of oral tazarotene and OCs in healthy volunteers. Two studies evaluate daily doses of norethindrone (NE)/ethinyl estradiol (EE) with daily doses of tazarotene 1.1 mg (N=27) and 6 mg (N=29). The third study assesses the daily doses of norgestimate (NGM)/EE with daily doses of tazarotene 6 mg (N=26). OCs are administered for three consecutive menstrual cycles. Daily doses of tazarotene are started during the 2nd cycle and continued through the end of the studies. PK parameters for EE, NE, and NGM (AUC0-24 and Cmax) are determined before tazarotene dosing and after tazarotene dosing on day 6 of the 2nd and 3rd cycles. Serum concentrations of luteinizing hormone (LH) and follicle-stimulating hormone (FSH)-markers of contraceptive efficacy are also evaluated before tazarotene dosing and after tazarotene dosing on days 2, 4, and 6 of the 2nd and 3rd cycles. Serum progesterone levels are assessed on days 18 and 20 of the 2nd and 3rd cycles. […]

[3] = topical administration of tazarotene; 'often well less than'; cited from earlier work
[4] = oral, cited from earlier work; for impact of food on bioavailability: literature
[5] = test system: patients treated for acne; test: Adverse event monitoring in studies of orally administered tazarotene for acne (Table 2); type: in vivo, human; settings: combined data from Studies 1 and 2 (N = 223)
Method: Studies are conducted on orally administered tazarotene for the treatment of acne. Adverse events (side effects) are monitored.

patients = test: Two placebo-controlled 24-week safety studies of oral tazarotene plus dose-response evaluations; type: in vivo, human; settings: 4.5 mg orally once daily; two safety trials; placebo 17%
Method: Two multicenter, double-blind, randomized, placebo-controlled 24-week studies of identical design are conducted to evaluate the safety of oral tazarotene. In addition, 16- to 24-week dose-response evaluations are performed.
In the two safety trials, the incidence of adverse side effects with a 4.5 mg dose administered orally once daily is compared to the incidence of the same side effects with a placebo. […] The majority of these were mild in severity and typical of adverse effects associated with oral retinoids.

[6] = test system: patients having nodulocystic acne; test: Two placebo-controlled dose-ranging safety studies of oral tazarotene in nodulocystic acne; type: in vivo, human; settings: for cheilitis: treatment period; for Emotional lability: all cases mild
Method: Two placebo-controlled dose-ranging studies are conducted to evaluate the safety of oral tazarotene in patients having nodulocystic acne. In the first study, patients receive orally administered tazarotene at daily doses of 0.4 mg to 2.8 mg in 96 (71+25) patients (12 weeks treatment plus 12 weeks post-treatment). In the second study, daily doses of 0.75 mg to 6 mg tazarotene are administered to 181 patients (24 weeks treatment plus 12 weeks post-treatment).

severe psoriasis = test: Patient with severe psoriasis on Ortho-Novum treated with tazarotene; type: in vivo, human; settings: 6 mg per day; after 30 days
From the text: The patient presents symptoms of severe psoriasis. The symptoms include lesions approximately 4 to 10 centimeters across appearing as raised patches of wine red skin many of which are covered in silvery white scales. The lesions are mostly dry and rough, and quite often noticeably warm to the touch. The lesions are present on the elbows, knees, scalp, and groin area. The patient experiences intense burning and itching associated with the lesions.
The patient is currently taking Ortho-Novum® for contraception.
Tazarotene at a dose of 6 mg per day is prescribed.

severe nodulocystic acne = test: Double-blind, randomized, placebo-controlled study of oral tazarotene in severe nodulocystic acne; type: in vivo, human
From the text: A multicenter, double-blind, randomized, placebo-controlled parallel-group study is undertaken to determine the efficacy of orally administered tazarotene in treating severe nodulocystic acne.
In addition, washout periods for other medications for this study are: 1 week for vitamin A supplements >5000 IU; 2 weeks for topical anti-acne medications (e.g., retinoids, azelaic acid, benzoyl peroxide); 2 weeks for topical or systemic antibiotic therapy that may alter the course of acne; and 6 months for systemic retinoids.
Patients are randomized to receive placebo or oral tazarotene (0.75, 1.5, 3, or 6 mg), in a 1:1:1:1:1 ratio once daily for 24 weeks. After this, the patients are followed without treatment for an additional 12 weeks. Patients discontinuing from the treatment period due to adverse effects or lack of efficacy are eligible for entry into the post-treatment phase.
In the study, overall acne severity is rated as: none (no inflammatory acne lesions); mild (few to several papules or pustules, no nodulocystic lesions); moderate (several to many papules or pustules, few to several nodulocystic lesions); and severe (numerous or extensive papules or pustules, many, for example, at least about 5 or at least about 10, nodulocystic lesions). […]
(§1) Sebum output is assessed every 4 weeks at selected centers using the Sebutape® patches, sold by Cuderm Corporation. Urinalysis, chemistry, and hematology values are monitored. Bone formation and resorption assessments (serum bone alkaline phosphatase and serum amino terminal telopeptides, respectively) at selected centers are monitored.
Bone mineral density of spine and proximal femur at selected centers is monitored. Ligament calcification or osteophyte formation (lateral X-ray of the cervical and thoracic spine, and ankle calcaneous) is monitored. Epiphyseal growth plate closure (internal oblique X-ray of the ankle in patients less than or equal to 21 years old) is monitored.

sebum secretion = test: Sebum output by Sebutape patches in the nodulocystic acne study; type: in vivo, human; settings: oral 0.75 to 6 mg once daily; up to 86 patients
Method: as §1
Sebum secretion output is assessed in a maximum of 86 patients (with successively fewer patients at each timepoint—e.g., 60 patients at week 24, 46 patients at week 36). Importantly, there is no consistent statistically significant differences in sebum production across treatment groups using the Sebutape® method of assessment.

sebaceous glands = settings: severe acne; published reports (Geiger); cited from earlier work
[7] = in vivo; cited from earlier work

- effect of high-fat meal on bioavailability or pharmacokinetics ([1]; single and multiple dose): does not substantially affect
- average ratio of Cmax values (test/reference) ([1]; Day 0): 1.00
- average ratio of Cmax values (test/reference) ([1]; Day 9): 0.829
- 90% confidence intervals of AUC0-24 and Cmax for EE, NE, and NGM [2]: within the 80-125% boundary
SMILES: CC1(C)CCSc2ccc(C#Cc3ccc(C(=O)O)cn3)cc21 [tazarotenic acid]
- maximum blood concentration [3]: less than 30 ng/ml

SMILES: C=C(c1ccc(C(=O)O)cc1)c1cc2c(cc1C)C(C)(C)CCC2(C)C [bexarotene]
- impact of food on bioavailability [4]: bioavailability is increased in the presence of food

SMILES: COc1cc(C)c(/C=C/C(C)=C/C=C/C(C)=C/C(=O)O)c(C)c1C [Acitretin, acitretin]
- impact of food on bioavailability [4]: bioavailability is increased in the presence of food

- abnormalities in liver function test results or elevated triglycerides, total cholesterol, or HDL cholesterol (severe nodulocystic acne; oral 0.75 to 6 mg once daily): not generally associated
SMILES: CCOC(=O)c1ccc(C#Cc2ccc3c(c2)C(C)(C)CCS3)nc1 [tazarotene]
- Conjunctivitis [5]: 0 (0.0) NUMBER OF (%) OF PATIENTS
- Irritation of eyes [5]: 0 (0.0) NUMBER OF (%) OF PATIENTS
- incidence of cheilitis (patients): 66%
- joint disorder ([6]; 2.8 mg, n=11, placebo 0%): 27%
- arthralgia ([6]; 2.8 mg, n=11, placebo 6%): 9%
- myalgia ([6]; 2.8 mg, n=11, placebo 9%): 0%
- asthenia ([6]; 2.8 mg, n=11, placebo 13%): 0%
- dry skin ([6]; 2.8 mg, n=11, placebo 19%): 18%
- headache ([6]; 2.8 mg, n=11, placebo 28%): 9%
- cheilitis ([6]; 2.8 mg, n=11, placebo 31%): 64%
- Emotional lability ([6]; 3 mg group, placebo 2 (4%)): 1 (3%) patient (%)
- arthralgia ([6]; 3 mg, n=37): 8%
- asthenia ([6]; 3 mg, n=37): 19%
- dry skin ([6]; 3 mg, n=37): 35%
- headache ([6]; 3 mg, n=37): 19%
- joint disorder ([6]; 3 mg, n=37): 14%
- myalgia ([6]; 3 mg, n=37): 16%
- cheilitis ([6]; 3 mg, n=37): 78%
- Depression ([6]; 6 mg group): none
- Emotional lability ([6]; 6 mg group): 5 (14%) patient (%)
- arthralgia ([6]; 6 mg, n=36): 28%
- asthenia ([6]; 6 mg, n=36): 19%
- dry skin ([6]; 6 mg, n=36): 50%
- headache ([6]; 6 mg, n=36): 36%
- joint disorder ([6]; 6 mg, n=36): 19%
- myalgia ([6]; 6 mg, n=36): 25%
- cheilitis ([6]; 6 mg, n=36): 94%
- changes in urinalysis, chemistry, or hematology measures (incl. liver function tests, triglycerides, total cholesterol, HDL cholesterol) ([6]; 0.4 to 6 mg daily): no consistent dose-related clinically significant changes
- patients withdrawing from either study due to adverse events ([6]; 7/277, all groups of both studies incl. placebo): 2.5%
- psoriasis symptoms and lesions (severe psoriasis): symptoms of itching and burning are relieved
- incidence of treatment success (≧50% global improvement) vs placebo (severe nodulocystic acne; 3 mg and 6 mg, week 24 and throughout post-treatment phase, p≦0.05): significantly higher
- reduction of overall acne severity (severe nodulocystic acne; 6 mg, week 16 until end of post-treatment phase, p≦0.01): significantly more than placebo
- effect on sebum secretion (Sebutape method) (sebum secretion): does not substantially reduce sebum secretion relative to placebo

SMILES: CC1=C(/C=C/C(C)=C/C=C/C(C)=C\C(=O)O)C(C)(C)CCC1 [Isotretinoin, isotretinoin]
- decrease in sebum secretion rate (sebaceous glands): about 90%
- total dose needed to reach the same peak blood concentration in the fasted state vs following a high fat meal [4]: more than doubled
- impact of food on bioavailability [4]: bioavailability is increased in the presence of food
- effect on coadministered contraceptive tablets [7]: decreases blood concentrations of both ethinyl estradiol and norethindrone

From patent publication US20050026957A1, “Methods of treating nodulocystic acne” (Allergan, Inc., priority 2003, published 2005)
